Reference: patent US6207648A, “Methods of using cytochrome P450 reductase for the enhancement of P450-based anti-cancer gene therapy” (priority 1998, dated 2001)

What was measured:
[1] = test system: 9L tumors in female Fischer 344 rats; assay: In vivo cytotoxicity / tumor excision assay, s.c. 9L tumors; set-up: species or system rat
Procedure: FIG. 9 is a graph depicting the results of an in vivo tumor excision assay, which quantitates the extent of CPA-induced tumor cell kill in rats in vivo for 9L tumors, compared to 9L tumors engineered to express P450 alone (CYP2B1^+) or P450 in combination with RED (CYP2B1^+ RED^+++).Female Fischer 344 rats were inoculated with parental 9L, CYP2B1^+, and CYP2B1^+ RED^+++ tumor cells by subcutaneous injection of 2×10^6 tumor cells/0.2 ml in the hindleg as described below in the "Materials and Methods" section of Example 1. At 2 weeks after tumor implantation, each animal received a single injection of CPA (50 or 100 mg/kg body weight) or saline as control. Twenty four hours later, tumors were excised, and single cell suspensions were prepared for assay of colony formation activity. Results are presented as mean survival fractions as compared to control groups, for 4 or 5 determinations; bars, standard error (SE).
In vivo cytotoxicity assay: Tumor cells were grown subcutaneously as solid tumors in female Fischer 344 rats (120-150g). Each rat was inoculated by subcutaneous injection of one tumor cell line at the right thigh and a second tumor cell line at the left thigh at 2×10^6 cells/site. Rats were randomized and divided into three groups. One group was injected with saline as a control. The other two groups were treated with CPA at 50 mg/kg or 100 mg/kg body weight given as a single intraperitoneal injection 2 weeks after tumor implantation. At 24 hours after CPA injection, the rats were sacrificed and soaked briefly in 75% ethanol. The tumors were excised, suspended in DMEM, and minced under sterile conditions. […] The single cell suspensions were counted and plated at densities of 200, 2×10^3 and 2×10^4 cells/well of a 6-well plate, in duplicate, to determine cell viability by a colony formation assay. […] Cells were grown for 7 days and colonies (>50 cells) were then stained with crystal violet and counted. Results are expressed as the surviving fractions SEM of cells from drug treated groups compared to untreated controls.

CYP2B1 = assay: Fluorometric assay of 4-hydroxy-CPA in culture medium of 9L tumor cells (Example 1); format: in vitro ADME, rat; conditions: 2 mM CPA, 24 h
Procedure: FIG. 7 is a bar graph showing that higher 4-hydroxy-CPA levels are produced by P450 and RED-containing tumor cells compared to tumor cells containing P450 alone. The parental CYP2B1^+ cell lines P3 and P17, and their corresponding RED overexpressing derivatives PR11 and PR7 were plated confluent (1.5×10^6 cells per 30 mm culture dish) so that the cell number remained relatively constant during the course of the experiment. Cells were incubated for 24 hours with 2 mM CPA in the presence of 5 mM semicarbazide. Medium was collected and then assayed for 4-hydroxy-CPA using a fluorometric assay, as described below in the "Materials and Methods" section of Example 1. Limit of detection in this assay was approximately 1 μM 4-hydroxy-CPA. The higher CPA 4-hydroxylase activity of line P 17 compared to line P3 is consistent both with the higher cytotoxic potential of CPA-conditioned media from P17 cells (FIG. 5), and with the greater cytotoxicity of CPA toward the P 17 cells in vitro (FIGS. 2, 3) and in vivo (FIG. 9, below).

[2] = in vivo; cited from earlier work
[3] = test system: 9L gliosarcoma cells (parental, CYP2B1+, CYP2B1+ RED+++); assay: In vitro colony formation cytotoxicity assay (Example 1); format: cell-based, rat
Source text: FIGS. 2A and 2C depict the results of a colony formation cytotoxicity assay.
FIG. 3A depicts results from a colony formation cytotoxicity assay. […] The survival fraction is expressed as the number of colonies in each treatment group compared to the untreated control.
Corresponding controls received no drug treatment.

O=P1(N(CCCl)CCCl)NCCCO1 (centres unmarked) [CPA, cyclophosphamide]
killing of CYP2B1+ tumors compared to wild type 9L tumors ([1]; 100 mg/kg, 24 h): up to 10 fold
additional tumor cell killing in CYP2B1+ RED+++ tumors ([1]; 24 h after CPA): approximately 10 fold
overall increase in tumor cell kill in vivo over hepatic drug activation alone ([1]; CYP2B1 + RED): 50-100 fold
4-hydroxylated metabolites in 9L parental cells (CYP2B1): corresponds to the limit of detection
levels of 4-hydroxy-CPA formed by CYP2B1+ RED+++ vs parental CYP2B1+ cell lines (CYP2B1; 5 mM semicarbazide): up to 3 fold
side effects of systemic distribution of drug and alkylating metabolites [2]: cardiotoxicity, renal toxicity, marrow suppression, and neurotoxoxicity
sensitization of 9L cells to CPA by RED overexpression alone ([3]; line 9L-R (RED without CYP2B1)): did not sensitize 9L tumor cells
cytotoxic response of CYP2B1+ cells on RED overexpression ([3]; lines PR11, PR7 vs P3, P17, colony formation assay): significantly enhanced the cytotoxic response
